Measurements taken from patent US20230056888A1, “COMPOSITIONS COMPRISING CYANIDIN-3-GALACTOSIDE FOR USE AS VASORELAXANT” (Evonik Operations GmbH, priority 2019, published 2023).
“Also recorded” adds a separate entry of the source. Each block holds one compound with its values, some of them ahead of it.

Legend:
[1] = system: nitric oxide production in mice mesenteric arteries; assay: Evaluation of NO production by DAF-FM in mesenteric arteries; assay type: cell-based; conditions: HB 50 μg/mL or 100 μg/mL; single anthocyanins 50 μg/mL; comparator acetylcholine 10^-6 M
Method: Production of NO was assessed as previously described (Carrizzo et al. 2016). Healthberry 865®-865 (100 μg/mL) or acetylcholine (10^-6 M) was administered to the mesenteric artery in the last 30 min of 4-amino-5-methylamino-2,7,-difluorofluorescein diacetate (DAF-FM) incubation, alone and after […] exposure to L-NAME (300 μmol/L, 30 min). Mesenteric segments were cut in 5-μm thick sections, observed under a fluorescence microscope, subsequently counterstained with haematoxylin and eosin and observed under a light microscope.
FIG. 2 D) show representative high-power micrographs of 10 μm sections of mice mesenteric arteries loaded for 2 h with […] (DAF-FM) reveal nitric oxide production after treatment with acetylcholine (Ach 10^-6 M) or HB (50 μg/mL) and after 30 min of pretreatment with L-NAME (300 μmol/L), counterstained with haematoxylin and eosin (HE). Scale bar, 50 μm. E) Semiquantitative analyses of immunoblots of mice mesenteric arteries treated with HB (100 μg/mL) alone, or HB plus Akt inhibitor or LY294002, columns are the mean±SEM of three independent experiments. Statistical analyses were performed using two-way ANOVA followed Bonferroni post-hoc test. *p<0.05; **p<0.01, ***p<0.001.
FIG. 7A-D show vascular response of phenylephrine-precontracted mice mesenteric arteries to increasing doses of a combination of anthocyanins mixed with a ratio 1:1. […]

mice mesenteric arteries = assay: Vascular reactivity of phenylephrine-precontracted mice mesenteric arteries, alone or with selective inhibitors; assay type: cell-based; conditions: for vasorelaxant effect in presence of Akt inhibitor: Akt inh 1 μM; for vasorelaxant effect in presence of Akt inhibitor / vasorelaxant effect in presence of PI3K inhibitor LY294002: 1 h; for vasorelaxant effect in presence of L-NAME (eNOS inhibitor): L-NAME 300 μM, 30 min pre-treatment; for vasorelaxant effect in presence of PI3K inhibitor LY294002: LY294002 10 μM; for direct vasorelaxant action of single anthocyanin, compared with Healthberry 865®: increasing doses 1-100 μg/mL; for vasorelaxation reached by single anthocyanin: dose-response curves 1-100 μg/mL
[2] = system: reactive oxygen species (ROS) in mouse mesenteric arteries; assay: Total ROS production (DHE / DHR123) in mesenteric arteries stimulated with Angiotensin II; assay type: cell-based; conditions: 50 μg/mL, 1 hour pre-treatment, then Angiotensin II 15 minutes, confirmed by DHR123
Method: Dihydroethidium (DHE, Life Technologies) was used to evaluate production of reactive oxygen species (ROS) in mouse mesenteric arteries, as previously described. Briefly, vessels were incubated with 5 μM of DHE for 20 min and subsequently observed under a fluorescence microscope (Zeiss). Images were acquired by a digital camera system (Olympus Soft Imaging Solutions). […] After treatment, vessels were incubated with Krebs solution containing 5 μM DHR123 for 30 min at 37° C., and then washed two times with PBS prior to fluorescence measurement using a fluorescence microplate reader (TECAN infinite 200 Pro).
(§1) Vessels were pre-treated with single anthocyanins (50 μg/mL) for 1 hours and then stimulated with Angiotensin II for 15 minutes prior to the acquisition. […] Data are expressed as increase of chemiluminescence per minute.
(§2) Data are expressed as increase of chemiluminescence per minute. Statistical analysis were performed using One-way ANOVA followed Bonferroni post-hoc test.

NADPH oxidase = NADPH oxidase activity (lucigenin-enhanced chemiluminescence) in mesenteric arteries after Angiotensin II; assay type: cell-based, mice; conditions: for NADPH oxidase (NOX) activity after stimulation with Angiotensin II: single anthocyanins 50 μg/mL, smaller reduction than Healthberry 865®
Method: Vessels were homogenized in a buffer containing protease inhibitors (mmol/L: 20 monobasic potassium phosphate, 1 EGTA, 0.01 aprotinin, 0.01 leupeptin, 0.01 pepstatin, 0.5 phenylmethylsulfonyl fluoride, pH 7.0). Protein content was measured in an aliquot of the homogenate by Bradford method. In some experiments, cells and vessels were pre-incubated with pharmacological inhibitors before measurements. The reaction was started by the addition of NADPH (0.1 mmol/l) and lucigenin (5 μmol/l) to each well. The chemiluminescence was measured using Tecan Infinite Pro M200 multimode microplate at 37° C.
as §1, §2

Compound: OC[C@H]1OC(Oc2cc3c(O)cc(O)cc3[o+]c2-c2ccc(O)c(O)c2)[C@H](O)C(O)C1O (stereo partly shown) [C3-gal, Cyanidin-3-galactoside]
nitric oxide production (DAF-FM fluorescence) [1]: significant increase of nitric oxide production
vasorelaxant effect in presence of Dorsomorphin (AMPK inhibitor) (mice mesenteric arteries): completely lost its vasorelaxant capability
vasorelaxant effect in presence of Akt inhibitor (mice mesenteric arteries): did not inhibit
vasorelaxant effect in presence of L-NAME (eNOS inhibitor) (mice mesenteric arteries): significantly reduced
vasorelaxant effect in presence of PI3K inhibitor LY294002 (mice mesenteric arteries): did not inhibit
direct vasorelaxant action of single anthocyanin, compared with Healthberry 865® (mice mesenteric arteries): able to reproduce the direct vasorelaxant effect

rank of NOX activity reduction among single anthocyanins relative to Healthberry 865® (NADPH oxidase): most powerful anthocyanins
NADPH oxidase (NOX) activity after stimulation with Angiotensin II (NADPH oxidase): able to reduce NOX activity
Compound: OC[C@H]1O[C@@H](Oc2cc3c(O)cc(O)cc3[o+]c2-c2ccc(O)c(O)c2)[C@H](O)[C@@H](O)[C@@H]1O [C3-glu, Cyanidin-3-glucoside]
Angiotensin II-induced ROS formation [2]: able to reproduce the antioxidant action
direct vasorelaxant action of single anthocyanin, compared with Healthberry 865® (mice mesenteric arteries): none of the single anthocyanins was able to evoke a dose-dependent vasorelaxation comparable

NADPH oxidase (NOX) activity after stimulation with Angiotensin II (NADPH oxidase): able to reduce NOX activity
Compound: C[C@@H]1O[C@@H](OC[C@H]2O[C@@H](Oc3cc4c(O)cc(O)cc4[o+]c3-c3ccc(O)c(O)c3)[C@H](O)[C@@H](O)[C@@H]2O)[C@H](O)[C@H](O)[C@H]1O [C3-rut, Cyanidin-3-rutinoside]
Angiotensin II-induced ROS formation [2]: able to reproduce the antioxidant action
vasorelaxation reached by single anthocyanin (mice mesenteric arteries): ~36.5%
direct vasorelaxant action of single anthocyanin, compared with Healthberry 865® (mice mesenteric arteries): none of the single anthocyanins was able to evoke a dose-dependent vasorelaxation comparable; also recorded: vasorelaxant effects

Compound: Oc1cc(O)c2cc(O[C@H]3OC[C@H](O)[C@H](O)[C@H]3O)c(-c3cc(O)c(O)c(O)c3)[o+]c2c1 [DP3-ara, Delphinidin-3-arabinoside]
direct vasorelaxant action of single anthocyanin, compared with Healthberry 865® (mice mesenteric arteries): none of the single anthocyanins was able to evoke a dose-dependent vasorelaxation comparable; also recorded: vasorelaxant effects

Compound: OC[C@H]1O[C@@H](Oc2cc3c(O)cc(O)cc3[o+]c2-c2cc(O)c(O)c(O)c2)[C@H](O)[C@@H](O)[C@H]1O [DP3-gal, Delphinidin-3-galactoside]
vasorelaxation reached by single anthocyanin (mice mesenteric arteries): about 32.5%
direct vasorelaxant action of single anthocyanin, compared with Healthberry 865® (mice mesenteric arteries): none of the single anthocyanins was able to evoke a dose-dependent vasorelaxation comparable; also recorded: vasorelaxant effects

NADPH oxidase (NOX) activity after stimulation with Angiotensin II (NADPH oxidase): able to reduce NOX activity
Compound: OC[C@H]1O[C@@H](Oc2cc3c(O)cc(O)cc3[o+]c2-c2cc(O)c(O)c(O)c2)[C@H](O)[C@@H](O)[C@@H]1O [DP3-glu, Delphinidin-3-glucoside]
Angiotensin II-induced ROS formation [2]: able to reproduce the antioxidant action
direct vasorelaxant action of single anthocyanin, compared with Healthberry 865® (mice mesenteric arteries): none of the single anthocyanins was able to evoke a dose-dependent vasorelaxation comparable

Compound: OC[C@H]1O[C@@H](Oc2cc3c(O)cc(O)cc3[o+]c2-c2cc(O)c(O)c(O)c2)[C@H](O[C@@H]2OC[C@@H](O)[C@H](O)[C@H]2O)[C@@H](O)[C@@H]1O [DP3-samb, Delphinidin-3-sambubioside]
nitric oxide production (DAF-FM fluorescence) [1]: significant increase of nitric oxide production
vasorelaxant effect in presence of Dorsomorphin (AMPK inhibitor) (mice mesenteric arteries): inhibited
vasorelaxant effect in presence of Akt inhibitor (mice mesenteric arteries): did not influence
vasorelaxant effect in presence of L-NAME (eNOS inhibitor) (mice mesenteric arteries): significantly reduced
vasorelaxant effect in presence of PI3K inhibitor LY294002 (mice mesenteric arteries): inhibited
direct vasorelaxant action of single anthocyanin, compared with Healthberry 865® (mice mesenteric arteries): able to reproduce the direct vasorelaxant effect

Compound: COc1cc(-c2[o+]c3cc(O)cc(O)c3cc2O[C@@H]2O[C@H](CO)[C@H](O)[C@H](O)[C@H]2O)cc(OC)c1O [MAL3-gal, Malvidin-3-galactoside]
Angiotensin II-induced ROS formation [2]: able to reproduce the antioxidant action
direct vasorelaxant action of single anthocyanin, compared with Healthberry 865® (mice mesenteric arteries): none of the single anthocyanins was able to evoke a dose-dependent vasorelaxation comparable
NADPH oxidase (NOX) activity after stimulation with Angiotensin II (NADPH oxidase): able to reduce NOX activity

Compound: COc1cc(-c2[o+]c3cc(O)cc(O)c3cc2O[C@@H]2O[C@H](CO)[C@@H](O)[C@H](O)[C@H]2O)cc(OC)c1O [MAL3-glu, Malvidin-3-glucoside]
Angiotensin II-induced ROS formation [2]: able to reproduce the antioxidant action
direct vasorelaxant action of single anthocyanin, compared with Healthberry 865® (mice mesenteric arteries): none of the single anthocyanins was able to evoke a dose-dependent vasorelaxation comparable
rank of NOX activity reduction among single anthocyanins relative to Healthberry 865® (NADPH oxidase): most powerful anthocyanins
NADPH oxidase (NOX) activity after stimulation with Angiotensin II (NADPH oxidase): able to reduce NOX activity

Compound: COc1cc(-c2[o+]c3cc(O)cc(O)c3cc2O[C@@H]2O[C@H](CO)[C@@H](O)[C@H](O)[C@H]2O)cc(O)c1O [PT3-glu, Petunidin-3-glucoside]
direct vasorelaxant action of single anthocyanin, compared with Healthberry 865® (mice mesenteric arteries): none of the single anthocyanins was able to evoke a dose-dependent vasorelaxation comparable

NADPH oxidase (NOX) activity after stimulation with Angiotensin II (NADPH oxidase): able to reduce NOX activity
Compound: Peonidin-3-galactoside [PEO3-gal]
Angiotensin II-induced ROS formation [2]: able to reproduce the antioxidant action
direct vasorelaxant action of single anthocyanin, compared with Healthberry 865® (mice mesenteric arteries): none of the single anthocyanins was able to evoke a dose-dependent vasorelaxation comparable
